In a melting point compilation (Tetko et al.; mined from patent text by program, amines drawn as free bases though some values may be those of a salt):

SMILES | melting point [°C]
CC(CS)C(=O)N(CC(=O)O)CC1CCCO1 (centres undefined) | 128 to 130
CCSc1sc(C#N)c(N(C)C(C)=O)c1C#N | 68
CC(C)S(=O)(=O)c1ccc2c(c1)nc(CC(C)(C)C)n2CCN(C)C | 116
CCCCCS(=O)(=O)NC(=O)CCc1cc(C(C)C)nn1Cc1ccc(C(F)(F)F)cc1Cl | 144 to 145
Cc1ccc(C2CCC(=O)Nc3ccccc32)cc1 (centres undefined) | 178 to 181
CCN1c2ncc(COc3ccc(F)cc3)cc2C(=O)N(C)c2ccc(Cl)nc21 | 143 to 144
O=C1Nc2ccc(Cl)cc2C12OCCCO2 | 184 to 185
COc1cc(OC)c(CN2CCc3cc(OCc4ccccc4)c(OC)cc3C2)c(OC)c1 | 129 to 131
Brc1cccc(Nc2ncnc3cc4c(cc23)OC(CN2CCOCC2)CO4)c1 (centres undefined) | 229 to 230
O=c1ccc2ccc(OCCCN3CCCN(c4cccc(Cl)c4Cl)CC3)cc2[nH]1 | 117 to 118
CCn1c(=O)n(N(Cc2ccccc2)Cc2ccccc2)c(=O)c2cc(F)c(F)cc21 | 133 to 135
Cc1cc(C(N)=O)ncc1C(c1c(F)ccc(F)c1F)S(=O)(=O)CCCO (centres undefined) | 148 to 150
Fc1ccc(Cn2c(NC3CCN(CCNc4ncccn4)CC3)nc3ccccc32)cc1 | 168
CCS(=O)(=O)c1cc2c(cc1OC)CCn1c3c(c(-c4cccs4)c1-2)CCCCN(C(C)(C)C)C3=O | 223 to 224
Cc1cccc(-c2[nH]cnc2-c2ccc(F)c(Br)c2)n1 | 205
CN1CCN(c2nc3ccccc3[nH]2)CC1 | 222 to 224
CCCCc1cn(CC(C)C)c(=O)n1Cc1ccc(-c2ccccc2-c2nnn[nH]2)nc1 | 160 to 162
O=C(N[C@H]1CN(C(=O)N2CCC[C@H]2C(=O)O)C1=O)c1ccccc1 | 148 to 151
C=CCOc1ccc2c(=O)c(C)c(-c3ccccc3)oc2c1C(=O)C=Cc1cc(OC)c(OC)c(OC)c1 | 121 to 123
CCCN(CCCCNC(=O)N1CCN(c2ccccc2)CC1)C1CCc2ncsc2C1 (centres undefined) | 120
COC(=O)CCCCCCCCCCCCCCCCCCCCCc1c(C)cc(OC)c(OC)c1O | 71 to 72.5
CCCCCCCCCCCCCCCCCCNC(=O)OCC(CNS(=O)(=O)CCCI)n1nnnc1C (centres undefined) | 82.5 to 83.5
Cn1ncc2c1C(=O)C(Cl)=C(Cl)C2=O | 176 to 177
CS(=O)(=O)c1ccc(-c2scnc2-c2ccc(F)cc2)cc1 | 138 to 139

SMILES | melting point [°C]
O=C(Cn1c(-c2ccc(Cl)cc2)nc2cccnc21)N1CCN(c2cccc(C(F)(F)F)c2)CC1 | 185 to 186
O=C(NO)c1cnc(N2CCC(CNS(=O)(=O)c3ccc(C(=O)Nc4ccc(Cl)c(-c5ccccn5)c4)c(Cl)c3)CC2)nc1 | 172 to 173
O=c1ccc(S(=O)(=O)n2ccnc2)n[nH]1 | 55 to 60
Sc1nnc(-c2ccc3ncsc3c2)o1 | 274 to 275
O=CN1CCC(=C2c3ccc(Cl)cc3CCc3cccnc32)CC1 | 147 to 149
CN(C(=S)c1ccc2nonc2c1)C1CCOCC1 | 174 to 175
O=C(CCCCC1CCN(Cc2ccccc2)CC1)c1ccc(F)cc1 | 67 to 68
N#Cc1c(Br)c(Br)n(C#N)c1Br | 195 to 198
CC(C)(C)c1cc(NC(=O)Nc2ccccc2C(=O)NC2CCN(C(c3ccccc3)c3ccccc3)CC2)cc(C(C)(C)C)c1O | 218 to 225
N#CC(C(=O)NC1CC1)C(=O)C1CC1 (centres undefined) | 136 to 138
COc1cc2c(cc1OC(C)C)-c1c(Br)c3c(n1CC2)C(=O)N(C(C)(C)C)CCOC3 | 160 to 162
CN(CCOc1ccc(C=CC(=O)N2CCc3c([nH]c4ccccc34)C2c2ccc3c(c2)CCO3)cc1)C(=O)OC(C)(C)C (centres undefined) | 110
O=C(c1ccc2c(=O)n(CCCCN3CC=C(c4ccccc4)CC3)c(=O)[nH]c2c1)N1CCOCC1 | 206 to 210
COc1cc(Nc2c(C#N)cnc3cc(OCc4ccccc4)c(OC)cc23)c(Cl)cc1Cl | 198 to 200
Cc1cc(N)nc(CCc2nc3cc(-c4ccc(C#N)cc4)cnc3[nH]2)c1 | 218
O=Cc1c(Cl)cncc1Cl | 110 to 111
Cc1c(C(F)(F)F)cnn(-c2cc(OCC3CCC3)c(Cl)cc2F)c1=O | 85.3
O=C(NC12CC3CC(CC(C3)C1)C2)c1nc(Br)n(-c2ccccc2)c1Br | 228 to 231
C=CC(=O)OCCCCCCCCOc1ccc(-c2ccc(OCCCCCCCCOC(=O)C=C)c(F)c2F)c(F)c1F | 60.5 to 61.4
Cc1nc2c(CO)cccn2c(=O)c1CCN1CCC(c2noc3cc(F)ccc23)CC1 | 186
CN(CCCNC(=O)NCCCCOc1cccc(CN2CCCCC2)c1)CCN(Cc1ccc(F)cc1)c1ccccn1 | 115
CC(C)(C)OC(=O)Oc1ccc(C(C(=O)OC(c2ccccc2)c2ccccc2)N2CC(N)C2=O)cc1 (centres undefined) | 120 to 122
Cn1cc(C#N)c(=O)c2cc3cc(F)c(F)cc3nc21 | 380
O=C(NO)C(CN1C(=O)CNC1=O)CS(=O)(=O)c1ccc(-c2ccc(Cl)cc2)cc1 (centres undefined) | 150 to 156

Second part, the molecule after the results:

melting point [°C] | SMILES
100 to 102 | COC(=O)c1ccc(CO)cc1N
237 to 253 | Cn1c(=O)ccc2cnc(N)nc21
138 to 140 | CN(C(=O)CCS(C)=O)c1nnc(-c2cccnc2)s1 (centres undefined)
89 to 90 | CCOC(=O)C(=O)c1cn(CCCNC(=O)OC(C)(C)C)c2ccccc12
110 | CCCC(=O)NC(C#N)C(=O)OCC (centres undefined)
150 to 154 | COC(=O)c1ccc2c(c1)S(=O)c1cc3c(cc1CC2)CCC3 (centres undefined)
165 | COc1ccc(N2C(=O)C3=C(SCCO3)C2O)nn1 (centres undefined)
215 to 216 | CC(C)Cn1c(CONS(C)(=O)=O)nc2c(N)nc3ccccc3c21
133 to 134 | COC(=O)c1cccc(-c2cccc(Oc3ccc(Cl)c(Cl)c3)n2)c1
82.7 | CC(C)(C)OC(=O)N1CCC(Nc2cccc(NC(=O)c3ccc(F)cc3)n2)CC1
96 to 97 | Nc1ccc(C(=O)NNCCC(=O)OCc2ccccc2)cc1
130 to 132 | COC(=O)Cc1sc(SCc2cc(O)nc(C)n2)nc1C
> 260 | CN(C)CCN1C(=O)c2ccc3[nH]c4ccc(O)cc4c3c2C1=O
72 to 73 | O=C(O)Cc1csc(NC(=O)C(Oc2ccc(F)cc2)c2ccc(S(=O)(=O)C3CC3)cc2)n1 (centres undefined)
146 to 147 | CON(Cc1ccc(F)c(F)c1)C(=O)C1=C(O)C(=O)N(C)C1
93.5 to 96.5 | COC(=O)CC(=O)Nc1cccc(COc2ccc(C(C)=O)c(OC)c2)c1
82 | Cc1cccc(NC(=O)NC(C)C(=O)N(c2ccccc2)c2ccccc2)c1 (racemic)
165 to 180 | Cc1ccc(C(=O)OC(C)c2nc3c(c(=O)n(C)c(=O)n3C)n2C)cn1 (centres undefined)
148 to 150 | CC(C)CC(=O)Nc1cccc(-c2ccnc3c(-c4cccs4)cnn23)c1
172 to 174 | COc1ccc(C(=O)Nc2ccccc2)cc1NCc1cccc2ccccc12
155 to 158 | O=C(O)c1c(O)cccc1Cc1cccs1
158 | O=C(c1ccc(Cl)c(Cl)c1)N1C(=O)N2CCCC2(Cc2ccc(Br)cc2)C1=O (centres undefined)
175 to 176 | COc1cc(COc2nn(-c3ccccc3)cc2C(N)=O)ccc1OCc1nc(-c2ccco2)oc1C
55 to 59 | COc1ccc(-c2ccc(C(C)C=O)cc2F)cc1 (centres undefined)
185 to 187 | CCOC(=O)c1cn(C2CC2)c2cc(F)c(F)c(C)c2c1=O
170 | Cc1cccc(NC(=O)CC23CC4CC(CC(C4)C2)C3)c1C

melting point [°C] | SMILES
106 to 107 | CC(C)(C)OC(=O)NC(Cc1ccccc1)C1CC(Cc2ccccc2)=NO1 (centres undefined)
168 | COc1c(Cl)c(-c2ccc(C(C)C)cc2)cc2oc(=O)c(C)c(C)c12
162 to 163 | COc1cc2ncnc(N3CCc4ccccc43)c2cc1OC
175 | O=C(CN1CCNCC1)Cn1c2ccc(Br)cc2c2cc(Br)ccc21
199 | CNC(=O)[C@H](NC(=O)c1ccc(F)cc1C(F)(F)F)[C@@H](CNC(C)=O)c1ccccc1 (racemic)
189 to 190 | COc1ccc2sc3nc(CO)cn3c2c1
185 to 186 | Cc1c(Br)cccc1N1Cc2cc(C(C)(C)C)sc2C1=O
68 to 69 | COc1ccc(/C=C/C(=O)C#CCO)cc1
226 to 228 | N#Cc1ccc(-c2ccc(S(=O)(=O)N(CCO)CCO)cc2)[nH]c1=O
114 to 117 | COc1ccc(C=O)c(O)c1Cl
53 to 59 | CC(C)NCC(O)COc1ccc(-c2oc3ccccc3c2C(=O)c2ccccc2)cc1 (centres undefined)
149 to 150 | NS(=O)(=O)OCCOc1cccc(-n2ccnc2)c1
96 to 98 | CSCc1cnc2c([N+](=O)[O-])cccc2c1Cl
78 to 80 | CCOC(=O)CCCN1CCC2(CC1)CN(c1ccc(C#N)cc1)C(=O)O2
105 to 107 | O=C(CCCl)c1ccc2c(c1)Cc1cc(C(=O)CCCl)ccc1S2
100 to 102 | COC(=O)CC(c1ccc(OC)c(OC)c1)N1C(=O)C2C=CCCC2C1=O (centres undefined)
138 to 140 | COc1cc(C(C)C)c2c(c1)S(=O)(=O)N(COC(=O)c1sccc1Cl)C2=O
85 to 86 | CCOC(=O)COc1c(CC=C(C)C)c(OC)cc(OC)c1C(=O)C=Cc1ccc(OC)cc1
216 to 217 | Nc1sc2c(c1C(=O)c1ccc(Cl)cc1)CCN(C(=O)Nc1ccccc1)C2
157 to 159 | CC(C)[C@H](NC(=O)c1ccc(Cn2nnc(-c3ccc(OC(=O)C(C)(C)C)cc3)n2)cc1)C(=O)OCc1ccccc1
36.5 | CCCCCCCC(=O)c1ccc(CCI)cc1
102 to 103 | CC(C)c1nn(-c2ccc(C(F)(F)F)cn2)cc1CCCOc1cccc(CCC(=O)O)c1
115 to 117 | CCCCc1nc2c(N)nc3ccccc3c2n1CCCCON=C(C)C
75.5 to 77.5 | COC(=O)c1cc(NC2CCCCC2)c2cc(Cc3ccc(F)cc3)cnc2c1O
171 to 172 | CSc1cc(C)nc(SC)c1NC(=O)CBr
